Reference: US9765037B2, “Compositions and methods for treating toxoplasmosis, cryptosporidiosis, and other apicomplexan protozoan related diseases” (University of Washington Through its Center for …, priority 2010, dated 2017)
Read-outs that look alike come from different tables or passages of the source.

Columns and labels:
TgCDPK1 = TgCDPK1 (Toxoplasma gondii, UniProt Q9BJF5); type: biochemical
CpCDPK1 = CpCDPK1 (Cryptosporidium parvum (strain Iowa II), UniProt A3FQ16); assay: biochemical; type: biochemical; conditions: read-out: IC50 (μM) CpCDPK1
CpCDPK1, sequence (A3FQ16 1-538): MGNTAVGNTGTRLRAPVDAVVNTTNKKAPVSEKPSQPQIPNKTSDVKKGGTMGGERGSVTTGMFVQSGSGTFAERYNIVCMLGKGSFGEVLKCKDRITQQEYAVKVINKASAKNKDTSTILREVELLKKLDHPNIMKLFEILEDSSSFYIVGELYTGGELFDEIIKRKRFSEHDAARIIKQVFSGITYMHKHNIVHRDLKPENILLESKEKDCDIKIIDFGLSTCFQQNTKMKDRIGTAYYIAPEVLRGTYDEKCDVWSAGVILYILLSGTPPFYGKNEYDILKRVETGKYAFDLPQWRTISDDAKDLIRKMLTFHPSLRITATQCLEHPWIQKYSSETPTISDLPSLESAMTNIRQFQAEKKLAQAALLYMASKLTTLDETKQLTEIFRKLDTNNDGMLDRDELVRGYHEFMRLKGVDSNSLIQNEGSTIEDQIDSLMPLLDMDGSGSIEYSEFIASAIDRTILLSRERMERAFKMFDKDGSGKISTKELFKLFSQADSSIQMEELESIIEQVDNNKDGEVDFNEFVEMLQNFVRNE

PfCDPK1 = PfCDPK1 (Plasmodium falciparum (isolate 3D7), UniProt P62344); assay: biochemical; conditions: for inhibition at 3 µM: read-out: PfCDPK1 (% inhibition @ 3 uM)
PfCDPK4 = PfCDPK4 (Plasmodium falciparum (isolate 3D7), UniProt Q8IBS5); assay: biochemical; conditions: for inhibition at 3 µM: read-out: PfCDPK4 (% inhibition @ 3 uM)
[1] = tested on: human promyelocytic leukemia (HL-60); assay: Growth inhibition of human cell line HL-60
[2] = tested on: human lymphocyte (CRL8155); assay: Growth inhibition of human cell line CRL8155

TgCDPK1, sequence (Q9BJF5 1-507): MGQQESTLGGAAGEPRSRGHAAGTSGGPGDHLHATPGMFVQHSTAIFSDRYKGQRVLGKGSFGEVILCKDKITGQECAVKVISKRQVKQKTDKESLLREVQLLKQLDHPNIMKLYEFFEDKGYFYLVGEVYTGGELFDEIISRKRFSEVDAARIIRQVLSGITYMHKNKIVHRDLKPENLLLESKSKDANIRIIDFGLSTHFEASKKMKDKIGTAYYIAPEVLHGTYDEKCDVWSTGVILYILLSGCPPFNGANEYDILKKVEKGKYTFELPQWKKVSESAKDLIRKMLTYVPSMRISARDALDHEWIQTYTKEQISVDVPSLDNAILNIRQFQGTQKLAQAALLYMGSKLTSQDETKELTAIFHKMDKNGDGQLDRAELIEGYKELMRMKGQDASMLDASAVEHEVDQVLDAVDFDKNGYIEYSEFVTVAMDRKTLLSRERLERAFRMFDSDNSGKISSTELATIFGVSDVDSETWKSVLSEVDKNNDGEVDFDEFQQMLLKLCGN

Compound | EC50 (PfCDPK1) [nM] | EC50 (PfCDPK4) [nM] | further results
Nc1ncnc2c1c(Cc1cccc3ccccc13)nn2C1CCCCC1 [Compound 5f, 1-cyclohexyl-3-(naphthalen-1-ylmethyl)-1H-pyrazolo[3,4-d]pyrimidin-4-amine] |  |  | IC50 (TgCDPK1; read-out: IC50 (μM) TgCDPK1): 0.946 µM; IC50 (TgCDPK1; read-out: TgCDPK1 IC50): 1 µM
CC(C)n1nc(-c2cccc(OCc3ccccc3)c2)c2c(N)ncnc21 [Compound 7aa, 3-(3-(benzyloxy)phenyl)-1-isopropyl-1H-pyrazolo[3,4-d]pyrimidin-4-amine] |  |  | inhibition of TgCDPK1 (in words) (TgCDPK1): neither kinase is inhibited; IC50 (TgCDPK1; read-out: IC50 (μM) TgCDPK1): 1.06 µM
Cc1cccc(-c2nn(C(C)C)c3ncnc(N)c23)c1 [Compound 7g, 1-isopropyl-3-m-tolyl-1H-pyrazolo[3,4-d]pyrimidin-4-amine] |  |  | IC50 (CpCDPK1): 0.114 µM; inhibition at 3 µM (PfCDPK1): 72%; inhibition at 3 µM (PfCDPK4): 64%
COc1ccc(-c2nn(C(C)C)c3ncnc(N)c23)cc1 [Compound 7j, 1-isopropyl-3-(4-methoxyphenyl)-1H-pyrazolo[3,4-d]pyrimidin-4-amine] |  |  | IC50 (CpCDPK1): 0.41 µM; inhibition at 3 µM (PfCDPK1): 87%; inhibition at 3 µM (PfCDPK4): 30%
COc1ccc(-c2nn(C(C)C)c3ncnc(N)c23)cc1C [Compound 7m, 1-isopropyl-3-(4-methoxy-3-methylphenyl)-1H-pyrazolo[3,4-d]pyrimidin-4-amine] |  |  | IC50 (CpCDPK1): 0.017 µM
CC(C)n1nc(-c2cccc(Cc3ccccc3)c2)c2c(N)ncnc21 [Compound 7y, 3-(3-benzylphenyl)-1-isopropyl-1H-pyrazolo[3,4-d]pyrimidin-4-amine] |  |  | inhibition of TgCDPK1 (in words) (TgCDPK1): neither kinase is inhibited; IC50 (TgCDPK1; read-out: IC50 (μM) TgCDPK1): 0.322 µM
CC(C)n1nc(-c2cccc(-c3ccccc3)c2)c2c(N)ncnc21 [Compound 7z, 3-(biphenyl-3-yl)-1-isopropyl-1H-pyrazolo[3,4-d]pyrimidin-4-amine] |  |  | inhibition of TgCDPK1 (in words) (TgCDPK1): neither kinase is inhibited; IC50 (TgCDPK1; read-out: IC50 (μM) TgCDPK1): 2.23 µM
CC(C)n1nc(-c2ccc3c(ccn3C)c2)c2c(N)ncnc21 [Compound 20, 1-isopropyl-3-(1-methyl-1H-indol-5-yl)-1H-pyrazolo[3,4-d]pyrimidin-4-amine] | 309 | 231 | IC50 (CpCDPK1; Table 8): 0.003 µM; Cell Toxicity HL60, % at 10 μM [1]: <30% at 10 μM; Cell Toxicity CRL8155, % at 10 μM [2]: <30% at 10 μM
Cc1cccc2[nH]c(-c3nn(C(C)C)c4ncnc(N)c34)cc12 [Compound 25, 1-isopropyl-3-(4-methyl-1H-indol-2-yl)-1H-pyrazolo[3,4-d]pyrimidin-4-amine] |  | 579 | Cell Toxicity HL60, % at 10 μM [1]: 47% toxicity at; Cell Toxicity CRL8155, % at 10 μM [2]: 38% toxicity at
Nc1ncnc2c1c(-c1ccc3cc(OCc4ccc(Cl)cc4)ccc3c1)nn2CC1CCNCC1 [Compound 39, 3-(6-(4-chlorobenzyloxy)naphthalen-2-yl)-1-(piperidin-4-ylmethyl)-1H-pyrazolo[3,4-d]pyrimidin-4-amine] | 21.1 | 9.2 | 
CC(C)COc1ccc2cc(-c3nn(C(C)C)c4ncnc(N)c34)ccc2c1 [Compound 43, 3-(6-isobutoxynaphthalen-2-yl)-1-isopropyl-1H-pyrazolo[3,4-d]pyrimidin-4-amine] | 278 | 1200 | 
CC(C)n1nc(-c2ccc3cc(OCc4ccccc4Cl)ccc3c2)c2c(N)ncnc21 [Compound 46, 3-(6-(2-chlorobenzyloxy)naphthalen-2-yl)-1-isopropyl-1H-pyrazolo[3,4-d]pyrimidin-4-amine] | 477 | > 3000 | Cell Toxicity HL60, % at 10 μM [1]: <30% at 10 μM; Cell Toxicity CRL8155, % at 10 μM [2]: <30% at 10 μM
CC(C)n1nc(-c2ccc3cc(OCc4cccc(Cl)c4)ccc3c2)c2c(N)ncnc21 [Compound 47, 3-(6-(3-chlorobenzyloxy)naphthalen-2-yl)-1-isopropyl-1H-pyrazolo[3,4-d]pyrimidin-4-amine] | 1290 | 1430 | IC50 (CpCDPK1; Table 8): 0.272 µM
Cc1ccc(C)c(COc2ccc3cc(-c4nn(C(C)C)c5ncnc(N)c45)ccc3c2)c1 [Compound 48, 3-(6-(2,5-dimethylbenzyloxy)naphthalen-2-yl)-1-isopropyl-1H-pyrazolo[3,4-d]pyrimidin-4-amine] | 2280 | > 3000 | 
Cc1ccccc1COc1ccc2cc(-c3nn(C(C)C)c4ncnc(N)c34)ccc2c1 [Compound 49, 1-isopropyl-3-(6-(2-methylbenzyloxy)naphthalen-2-yl)-1H-pyrazolo[3,4-d]pyrimidin-4-amine] | 688 | 2350 | 
Cc1ccc(C(F)(F)F)cc1COc1ccc2cc(-c3nn(C(C)C)c4ncnc(N)c34)ccc2c1 [Compound 50, 1-isopropyl-3-(6-(2-methyl-5-(trifluoromethyl)benzyloxy)naphthalen-2-yl)-1H-pyrazolo[3,4-d]pyrimidin-4-amine] | 2090 | > 3000 | 
CC(C)n1nc(-c2ccc3cc(OCc4ccc(CC(F)(F)F)c(Cl)c4)ccc3c2)c2c(N)ncnc21 [Compound 51, 3-(6-(3-chloro-4-(2,2,2-trifluorethyl)benzyloxy)naphthalen-2-yl)-1-isopropyl-1H-pyrazolo[3,4-d]pyrimidin-4-amine] | 1600 | 260 | 
CC(C)n1nc(-c2ccc3cc(OCc4cc(F)cc(Cl)c4)ccc3c2)c2c(N)ncnc21 [Compound 52, 3-(6-(3-chloro-5-fluorobenzyloxy)naphthalen-2-yl)-1-isopropyl-1H-pyrazolo[3,4-d]pyrimidin-4-amine] | 1070 | 1230 | 
CC(Oc1ccc2cc(-c3nn(C(C)C)c4ncnc(N)c34)ccc2c1)c1ccccc1 (stereo not drawn) [Compound 53, 1-isopropyl-3-(6-(1-phenylethoxy)naphthalen-2-yl)-1H-pyrazolo[3,4-d]pyrimidin-4-amine] | 532 | 1640 | 

Compound | EC50 (PfCDPK1) [nM] | EC50 (PfCDPK4) [nM] | further results
CC(C)n1nc(-c2ccc3cc(OCc4ccc(C(C)(C)C)cc4)ccc3c2)c2c(N)ncnc21 [Compound 54, 3-(6-(4-tert-butylbenzyloxy)naphthalen-2-yl)-1-isopropyl-1H-pyrazolo[3,4-d]pyrimidin-4-amine] | 47.8 | 438 | 
CC(C)n1nc(-c2ccc3cc(OCc4ccncc4)ccc3c2)c2c(N)ncnc21 [Compound 55, 1-isopropyl-3-(6-(pyridin-4-ylmethoxy)naphthalen-2-yl)-1H-pyrazolo[3,4-d]pyrimidin-4-amine] | 216 | 175 | 
CC(C)n1nc(-c2ccc3cc(OCc4ccc(Cl)cc4)ccc3c2)c2c(N)ncnc21 [Compound 56, 3-(6-(4-chlorobenzyloxy)naphthalen-2-yl)-1-isopropyl-1H-pyrazolo[3,4-d]pyrimidin-4-amine] | 1140 | 888 | IC50 (CpCDPK1; Table 8): 0.105 µM
Cn1ccc2cc(-c3nn(CC4CCNCC4)c4ncnc(N)c34)ccc21 [Compound 57, 3-(1-methyl-1H-indol-5-yl)-1-(piperidin-4-ylmethyl)-1H-pyrazolo[3,4-d]pyrimidin-4-amine] | 705 | 243 | 
CN(C)c1ccc2cc(-c3nn(CC4CCNCC4)c4ncnc(N)c34)ccc2n1 [Compound 68, 6-(4-amino-1-(piperidin-4-ylmethyl)-1H-pyrazolo[3,4-d]pyrimidin-3-yl)-N,N-dimethylquinolin-2-amine] |  |  | IC50 (CpCDPK1; Table 8): > 3 µM
CC(C)(C)c1nc(-c2cnc3ccccc3c2)c2c(N)nccn12 [Compound 72, 3-tert-butyl-1-(quinolin-3-yl)imidazo[1,5-a]pyrazin-8-amine] | 948 | 241 | Cell Toxicity HL60, % at 10 μM [1]: <30% at 10 μM; Cell Toxicity CRL8155, % at 10 μM [2]: <30% at 10 μM
N#Cc1cccc(-c2ccc(-c3nn(CC4CCNCC4)c4ncnc(N)c34)cc2)c1 [Compound 74, 4′-(4-amino-1-(piperidin-4-ylmethyl)-1H-pyrazolo[3,4-d]pyrimidin-3-yl)biphenyl-3-carbonitrile] | 347 | 1010 | 
COC(=O)Nc1nc2ccc(C(O)c3ccccc3)cc2[nH]1 (stereo not drawn) [Compound 82] | > 3000 | > 3000 | 
CC(C)n1nc(-c2ccc3cc(OC(=O)c4cccc(Cl)c4)ccc3c2)c2c(N)ncnc21 [Compound 85] | 229 | 479 | 
O=C(NCCO)Nc1nc2ccc(C(=O)c3ccccc3)cc2[nH]1 [Compound 90] |  |  | Cell Toxicity HL60, % at 10 μM [1]: <30% at 10 μM; Cell Toxicity CRL8155, % at 10 μM [2]: <30% at 10 μM
Nc1ncnc2c1c(I)nn2CC1CCNCC1 [Compound 98] |  |  | Cell Toxicity HL60, % at 10 μM [1]: <30% at 10 μM; Cell Toxicity CRL8155, % at 10 μM [2]: <30% at 10 μM
Nc1ncnc2c1c(-c1ccc(-c3ccccc3)cc1)nn2CC1CCNCC1 [Compound 100] | 74.9 | 908 | 
NCCCCCC(=O)Nc1nc2ccc(C(=O)c3ccccc3)cc2[nH]1 [Compound 105] |  |  | Cell Toxicity HL60, % at 10 μM [1]: <30% at 10 μM; Cell Toxicity CRL8155, % at 10 μM [2]: <30% at 10 μM
O=C(CCCC1CCNCC1)Nc1nc2ccc(C(=O)c3ccccc3)cc2[nH]1 [Compound 115] |  |  | Cell Toxicity HL60, % at 10 μM [1]: <30% at 10 μM; Cell Toxicity CRL8155, % at 10 μM [2]: <30% at 10 μM
Nc1ncnc2c1c(-c1ccc3nccnc3c1)nn2CC1CCNCC1 [Compound 122] | 482 | > 3000 | Cell Toxicity HL60, % at 10 μM [1]: <30% at 10 μM; Cell Toxicity HL60, % at 30 μM ([1]; 30 μM): <30% at 30 μM; Cell Toxicity CRL8155, % at 10 μM [2]: <30% at 10 μM; Cell Toxicity CRL8155, % at 30 μM ([2]; 30 μM): <30% at 30 μM
CC(C)COc1ccc2cc(-c3nn(C(C)(C)C)c4ncnc(N)c34)ccc2c1 [Compound 130] | 2950 | > 3000 | 
CC(C)(C)n1nc(-c2ccc3oc(-c4ccccc4)nc3c2)c2c(N)ncnc21 [Compound 131] | 266 | > 3000 | 
CC(C)(C)n1nc(-c2ccc(-c3nn(C(C)(C)C)c4ncnc(N)c34)cc2)c2c(N)ncnc21 [Compound 141] | 1470 | 2030 | inhibition at 3 µM (PfCDPK1): 92%; inhibition at 3 µM (PfCDPK4): 55%
